We go through three compounds from ChEMBL document CHEMBL2346565, “Syntheses and biological evaluation of 1-heteroaryl-2-aryl-1H-benzimidazole derivatives as c-Jun N-terminal kinase inhibitors with neuroprotective effects” (Bioorg Med Chem, 2013).

In experiment [1] the target is Mitogen-activated protein kinase 9 (Homo sapiens, UniProt P45984). In words: Competitive inhibition of JNK2 (unknown origin) in presence of ATP.
Experiment [2] addresses T1, Mitogen-activated protein kinase 10 (Homo sapiens, UniProt P53779). In words: Competitive inhibition of JNK3 (unknown origin) in presence of ATP.
Experiment [3] deals with T1, Mitogen-activated protein kinase 10. Briefly: Inhibition of JNK3 in human PBMCs assessed as decrease in LPS-induced TNFalpha mRNA level after 4 hrs by real-time reverse transcription-PCR analysis.
The target is the same in experiment [4]. Briefly: Binding affinity to N-terminal His6X-tagged human recombinant JNK3 catalytic domain expressed in Escherichia coli BL21 (DE3) by surface plasmon resonance analysis. For orientation: Surface plasmon resonance follows binding to a sensor surface in real time, without labels.

A word on the IC50: it is the concentration that inhibits the measured activity by half. What is called Kd is the equilibrium constant for the complex coming apart.

T1 sequence (P53779 whole entry): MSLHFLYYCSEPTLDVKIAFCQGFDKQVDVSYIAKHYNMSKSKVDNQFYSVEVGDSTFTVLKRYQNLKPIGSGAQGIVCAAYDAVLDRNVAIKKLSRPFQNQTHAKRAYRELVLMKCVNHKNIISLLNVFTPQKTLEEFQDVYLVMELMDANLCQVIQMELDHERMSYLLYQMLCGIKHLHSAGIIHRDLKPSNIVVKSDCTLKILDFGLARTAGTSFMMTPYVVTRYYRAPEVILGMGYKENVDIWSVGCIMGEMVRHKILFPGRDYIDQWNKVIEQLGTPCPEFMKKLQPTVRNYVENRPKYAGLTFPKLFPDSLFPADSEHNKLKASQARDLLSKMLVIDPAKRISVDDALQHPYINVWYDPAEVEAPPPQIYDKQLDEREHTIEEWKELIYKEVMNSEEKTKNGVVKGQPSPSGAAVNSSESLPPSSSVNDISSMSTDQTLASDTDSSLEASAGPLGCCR
Chain of Mitogen-activated protein kinase 9 (P45984 whole entry): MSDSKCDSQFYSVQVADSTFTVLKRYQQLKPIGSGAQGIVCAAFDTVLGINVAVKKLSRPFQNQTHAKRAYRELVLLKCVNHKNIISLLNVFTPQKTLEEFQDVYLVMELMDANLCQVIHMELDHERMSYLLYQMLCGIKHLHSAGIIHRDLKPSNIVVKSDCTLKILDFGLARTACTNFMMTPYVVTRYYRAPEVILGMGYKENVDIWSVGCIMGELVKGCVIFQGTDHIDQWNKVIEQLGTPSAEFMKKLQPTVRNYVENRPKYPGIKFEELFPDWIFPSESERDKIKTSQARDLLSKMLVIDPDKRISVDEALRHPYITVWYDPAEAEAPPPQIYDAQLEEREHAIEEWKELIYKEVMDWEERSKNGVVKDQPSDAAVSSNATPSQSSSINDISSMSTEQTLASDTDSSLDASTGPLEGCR

For `Oc1cccc(-c2nc3ccccc3n2-c2ccnc(N[C@@H]3CCCNC3)c2)c1`, the IC50 in experiment [1] was 2.18 µM; in experiment [2] it was 1.86 µM.

Take `Oc1c2ccccc2c2c3c(cccc13)N=N2` [SP-600125]: in experiment [3], the IC50 turned out to be 10 µM and the inhibition result is “Dose-dependent effect”.

For `COc1ccc2c(c1)nc(-c1ccc(C)c(Cl)c1)n2-c1ccnc(NC2CCCCC2)c1`, in experiment [4], the Kd was 18.1 µM.
